The source of these data is PMC9530963, “A cathelicidin antimicrobial peptide from Hydrophis cyanocinctus inhibits Zika virus infection by downregulating expression of a viral entry factor” (The Journal of Biological Chemistry, 2022).

The subject of assay [1] is bacteria. Further details: method as in PMID 26013823. Particulars: cited from earlier work.
Assay [2] concerns ZIKV. The assay is described as follows: Binding of Hc-CATH to ZIKV (ELISA). Further details: species or system ZIKV strain PRVABC59. Particulars: plates coated with 0.25 μM peptide, 1 × 10^6 PFU ZIKV, absorbance at 450 nm. On the procedure: Figure 8 Hc-CATH directly inactivates ZIKV particles by disrupting viral membrane.A, schematic diagram of B–G (Hc-CATH-Vero-pre). B–G, direct inactivation of ZIKV by Hc-CATH. ZIKVs (MOI = 1) were incubated with Hc-CATH (2.5 μM), AC5 (2.5 μM), LL-37 (2.5 μM), or PBS (peptide solvent) at 37 °C for 2 h, and then the ZIKV–PBS mixture and ZIKV–peptide mixture were centrifugated at 100,000g for 70 min. The pellets were washed with PBS and centrifugated at 100,000g for 70 min again. The pellets were resuspended in PBS, added to Vero cells, and incubated for 2 h. Cells were washed with PBS and cultured in fresh DMEM containing 2% FBS. After culture at 37 °C for 48 h, the intracellular ZIKV RNA (B), NS3 protein (C and D), E protein level (E, the scale bar represents 50 μm), and extracellular ZIKV titer (F and G) were tested by qPCR, Western blot, immunofluorescence staining, and plaque-forming assay, respectively. H, binding of Hc-CATH to ZIKV. High-affinity binding plates were coated with 0.25 μM of Hc-CATH, BSA, AC5, or LL-37. Then, 1 × 10^6 PFU of ZIKV was added and incubated. […] Absorbance at 450 nm was measured after reactions were stopped using 0.5 M sulfuric acid. […] After the residual RNase was inactivated, the undigested genomic RNA in the intact ZIKV particles was extracted and quantified by testing the genes of PrM, E, and Cap proteins, respectively. ∗∗p < 0.01 and ∗∗∗p < 0.001. […]

In assay [3] the test system is ZIKV. The assay is described as follows: Antiviral activity of Hc-CATH against ZIKV in vitro (peptide present during and after infection). It is filed as cell-based, ZIKV strain PRVABC59. On the procedure: Figure 1 Hc-CATH inhibits ZIKV infection in vitro. A, schematic diagram of B–H. B–H, protective effect of Hc-CATH on ZIKV infection in vitro. Vero cells were seeded in 24-well plates (5 × 10^4 cells/well). Cells were infected with ZIKV (MOI = 1), and Hc-CATH (1.25, 2.5, and 5 μM), AC5 (2.5 and 5 μM), LL-37 (2.5 μM), or same volume of PBS (peptide solvent) was added and incubated at 37 °C for 2 h. Then the cells were washed with PBS and transferred with fresh DMEM containing 2% FBS and the same concentration of peptides. After culture at 37 °C for 48 h, image of ZIKV-caused cytopathic effect was taken (B, the scale bar represents 200 μm), the percentage of ZIKV-caused cytopathic effect was quantified by CCK-8 (C), intracellular ZIKV RNA (D), NS3 protein (E, upper panel: immunoblots, lower panel: ratios analyzed by ImageJ), E protein (F, the scale bar represents 50 μm), and extracellular ZIKV titer (G and H) was tested by qPCR, Western blot, immunofluorescence staining, and plaque-forming assay, respectively. The raw data files used in the creation of G are presented in Fig. S3. ∗p < 0.05, ∗∗p < 0.01, ∗∗∗p < 0.001, ns, not significant.
Vero cells were seeded in 24-well plates (5 × 10^4 cells/well). After cells were adhered to plates, cells were incubated with ZIKV (multiplicity of infection [MOI] = 1) in the presence of noncytotoxic concentration of Hc-CATH, AC5 (positive control), LL-37 (positive control), or PBS (solvent of peptide). After incubation at 37 °C for 2 h, the culture media were removed, cells were washed with PBS and transferred with fresh culture media containing 2% FBS, and Hc-CATH, AC5, LL-37, or PBS was supplemented to each well. After incubation at 37 °C for 48 h, cytopathic effect was observed by microscopy, and Cell Counting Kit-8 was applied to determine the percent of cytopathic effect. The percent of cytopathic effect was calculated as (Asham –Atreatment)/Asham × 100 (where Asham represents the absorbance of uninfected cells, Atreatment represents the absorbance of PBS- or peptide-treated cells post ZIKV infection). The intracellular ZIKV RNA, NS3 protein, E protein, and extracellular ZIKV titer were tested by qPCR, WB, IF, and plaque-forming assay, respectively ([28]).

The subject of assay [4] is ZIKV. Put plainly: ZIKV replication stage, Vero cells (peptide added after infection). It counts as cell-based, ZIKV strain PRVABC59. To be noted: 2.5 μM added after 2 h ZIKV infection (MOI = 1), 48 h, relative to PBS. On the procedure:
B–I, Vero (B–G), A549 (H), or U251 (I) cells were incubated with ZIKV (MOI = 1) at 37 °C for 2 h, washed with PBS, and transferred with fresh DMEM containing 2% FBS and Hc-CATH (2.5 μM), AC5 (2.5 μM), LL-37 (2.5 μM), or PBS (solvent of peptide). After culture at 37 °C for 48 h, intracellular ZIKV RNA (B), NS3 protein (C, D, H, and I), E protein level (E, the scale bar represents 50 μm), and extracellular ZIKV titer (F and G) were detected by qPCR, Western blot, immunofluorescence staining, and plaque-forming assay, respectively.
Vero cells were incubated with ZIKV (MOI = 1) at 37 °C for 2 h, washed three times with PBS, and transferred with fresh DMEM containing 2% FBS and Hc-CATH (2.5 μM), AC5 (2.5 μM), LL-37 (2.5 μM), or PBS. After culture at 37 °C for 48 h, intracellular ZIKV RNA, NS3 protein, E protein, and extracellular ZIKV titer were detected by qPCR, WB, IF, and plaque-forming assay, respectively. The effect of Hc-CATH on ZIKV replication stage was further tested in A549 and U251 cells under the same condition, and intracellular ZIKV NS3 protein was detected by WB.

“KFFKRLLKSVRRAVKKFRKKPRLIGLSTLL [Hc-CATH, cathelicidin antimicrobial peptide identified from the sea snake Hydrophis cyanocinctus]”: the antibacterial spectrum result in assay [1] was “broad antibacterial spectrum”. Moreover, the “binding to ZIKV” value in assay [2] is “stronger binding affinity with ZIKV as compared with bovine serum albumin”. Besides, in assay [3] (5 μM, Vero cells, ZIKV MOI = 1, 48 h, Western blot, ImageJ), the “reduction of NS3 protein” value was roughly 67.4%. Also, the “reduction of extracellular ZIKV particles” value in assay [3] (5 μM, Vero cells, ZIKV MOI = 1, 48 h, plaque-forming assay) was roughly 71.6%. Further, the “reduction of intracellular ZIKV RNA” value in assay [3] (5 μM, Vero cells, ZIKV MOI = 1, 48 h, qPCR) was roughly 52.7%. Also, the “reduction of ZIKV-caused cytopathic effect” value in assay [3] (5 μM, Vero cells, ZIKV MOI = 1, peptide during 2 h infection and 48 h culture, CCK-8) is “about 70.3%”. Further, the “anti-ZIKV efficacy in vitro compared with positive peptides” value in assay [3] (Vero cells (Fig. 1)) was “weaker than that of AC5 and LL-37”. For the same sequence, the “intracellular ZIKV RNA, NS3 protein, E protein, extracellular ZIKV titer, peptide maintained after infection” value in assay [4] is on record as “did not reduce”.
